What was measured:
Experiment in all cases: relative viability (nuclei count vs DMSO), 5 days (fraction); higher = more cells survive
[1] = tested on: 201T
How it was run: (§1)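 After 5 days of treatment, lung cancer cells in 1536-well plates were fixed and stained in a single step (final 0.05% Triton X-100, 1% formaldehyde, 1 ug/ml Hoechst) and their nuclei counted on 4× images. Treatment had been applied by pin tool the day after seeding as one drug alone or as a fixed anchor-drug dose with five library-drug doses (not always all listed) in √10 steps. Relative viability is the nuclei count of treated wells divided by that of vehicle wells, and values are medians of duplicate plates.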

[2] = tested on: NCI-H358
How it was run: as §1

[3] = tested on: BEN
How it was run: as §1

[4] = tested on: NCI-H2087
How it was run: as §1

[5] = tested on: NCI-H2126
How it was run: as §1

[6] = tested on: EKVX
How it was run: as §1

[7] = tested on: NCI-H441
How it was run: as §1

[8] = tested on: EMC-BAC-2
How it was run: as §1

[9] = tested on: COR-L23
How it was run: as §1

[10] = tested on: NCI-H1650
How it was run: as §1

[11] = tested on: EPLC-272H
How it was run: as §1

[12] = tested on: NCI-H1915
How it was run: as §1

[13] = tested on: LCLC-103H
How it was run: as §1

[14] = tested on: NCI-H1651
How it was run: as §1

[15] = tested on: NCI-H2347
How it was run: as §1

[16] = tested on: NCI-H596
How it was run: as §1

[17] = tested on: HCC-44
How it was run: as §1

[18] = tested on: SW 1573
How it was run: as §1

[19] = tested on: LK-2
How it was run: as §1

[20] = tested on: NCI-H1793
How it was run: as §1

[21] = tested on: HCC-827
How it was run: as §1

[22] = tested on: LXF-289
How it was run: as §1

[23] = tested on: A-427
How it was run: as §1

[24] = tested on: NCI-H460
How it was run: as §1

[25] = tested on: SW 900
How it was run: as §1

Question: Which relative viability ([1]; first compound 0.08 µM) does the source give for CCCCCCCCCCCC1=C(O)C(=O)C=C(O)C1=O [Embelin] + Nc1nc2[nH]cc(CCc3ccc(C(=O)N[C@@H](CCC(=O)O)C(=O)O)cc3)c2c(=O)[nH]1 [Pemetrexed] (partner 0.2 µM) here?
Answer: 0.347

Question: And the relative viability ([1]; first compound 0.8 µM)?
Answer: 0.326

Question: What about the relative viability ([1]; first compound 2.53 µM) of the same molecule?
Answer: 0.333

Question: And the relative viability ([1]; first compound 8 µM)?
Answer: 0.299

Question: And the relative viability ([2]; first compound 0.08 µM)?
Answer: 0.217

Question: What about the relative viability ([2]; first compound 0.8 µM) of the same molecule?
Answer: 0.193

Question: What about the relative viability ([2]; first compound 2.53 µM) of the same molecule?
Answer: 0.178

Question: And the relative viability ([2]; first compound 8 µM)?
Answer: 0.175

Question: And the relative viability ([3]; first compound 0.08 µM)?
Answer: 0.763

Question: And the relative viability ([3]; first compound 0.8 µM)?
Answer: 0.823

Question: What about the relative viability ([3]; first compound 2.53 µM) of the same molecule?
Answer: 1.03

Question: And the relative viability ([3]; first compound 8 µM)?
Answer: 0.731

Question: What about the relative viability ([4]; first compound 0.08 µM) of the same molecule?
Answer: 0.745

Question: And the relative viability ([4]; first compound 0.8 µM)?
Answer: 0.517

Question: And the relative viability ([4]; first compound 2.53 µM)?
Answer: 0.748

Question: What about the relative viability ([4]; first compound 8 µM) of the same molecule?
Answer: 0.646

Question: And the relative viability ([5]; first compound 0.08 µM)?
Answer: 0.735

Question: What about the relative viability ([5]; first compound 0.8 µM) of the same molecule?
Answer: 0.636

Question: What about the relative viability ([5]; first compound 2.53 µM) of the same molecule?
Answer: 0.654

Question: And the relative viability ([5]; first compound 8 µM)?
Answer: 0.69

Question: What about the relative viability ([6]; first compound 0.08 µM) of the same molecule?
Answer: 0.406

Question: And the relative viability ([6]; first compound 0.8 µM)?
Answer: 0.465

Question: And the relative viability ([6]; first compound 2.53 µM)?
Answer: 0.368

Question: And the relative viability ([6]; first compound 8 µM)?
Answer: 0.407

Question: And the relative viability ([7]; first compound 0.08 µM)?
Answer: 0.255

Question: What about the relative viability ([7]; first compound 0.8 µM) of the same molecule?
Answer: 0.261

Question: What about the relative viability ([7]; first compound 2.53 µM) of the same molecule?
Answer: 0.301

Question: What about the relative viability ([7]; first compound 8 µM) of the same molecule?
Answer: 0.274

Question: And the relative viability ([8]; first compound 0.08 µM)?
Answer: 0.472

Question: What about the relative viability ([8]; first compound 0.8 µM) of the same molecule?
Answer: 0.53

Question: And the relative viability ([8]; first compound 2.53 µM)?
Answer: 0.399

Question: And the relative viability ([8]; first compound 8 µM)?
Answer: 0.49

Question: And the relative viability ([9]; first compound 0.08 µM)?
Answer: 0.196

Question: What about the relative viability ([9]; first compound 0.8 µM) of the same molecule?
Answer: 0.196

Question: And the relative viability ([9]; first compound 2.53 µM)?
Answer: 0.201

Question: What about the relative viability ([9]; first compound 8 µM) of the same molecule?
Answer: 0.191

Question: And the relative viability ([10]; first compound 0.08 µM)?
Answer: 0.437

Question: And the relative viability ([10]; first compound 0.8 µM)?
Answer: 0.369

Question: And the relative viability ([10]; first compound 2.53 µM)?
Answer: 0.494

Question: What about the relative viability ([10]; first compound 8 µM) of the same molecule?
Answer: 0.358

Question: What about the relative viability ([11]; first compound 0.08 µM) of the same molecule?
Answer: 0.361

Question: And the relative viability ([11]; first compound 0.8 µM)?
Answer: 0.302

Question: What about the relative viability ([11]; first compound 2.53 µM) of the same molecule?
Answer: 0.331

Question: What about the relative viability ([11]; first compound 8 µM) of the same molecule?
Answer: 0.247

Question: What about the relative viability ([12]; first compound 0.08 µM) of the same molecule?
Answer: 0.518

Question: What about the relative viability ([12]; first compound 0.8 µM) of the same molecule?
Answer: 0.488

Question: And the relative viability ([12]; first compound 2.53 µM)?
Answer: 0.558

Question: And the relative viability ([12]; first compound 8 µM)?
Answer: 0.55

Question: And the relative viability ([13]; first compound 0.08 µM)?
Answer: 0.49

Question: What about the relative viability ([13]; first compound 0.8 µM) of the same molecule?
Answer: 0.485

Question: What about the relative viability ([13]; first compound 2.53 µM) of the same molecule?
Answer: 0.449

Question: And the relative viability ([13]; first compound 8 µM)?
Answer: 0.458

Question: And the relative viability ([14]; first compound 0.08 µM)?
Answer: 0.58

Question: And the relative viability ([14]; first compound 0.8 µM)?
Answer: 0.613

Question: What about the relative viability ([14]; first compound 2.53 µM) of the same molecule?
Answer: 0.656

Question: What about the relative viability ([14]; first compound 8 µM) of the same molecule?
Answer: 0.642

Question: What about the relative viability ([15]; first compound 0.08 µM) of the same molecule?
Answer: 0.413

Question: And the relative viability ([15]; first compound 0.8 µM)?
Answer: 0.482

Question: What about the relative viability ([15]; first compound 2.53 µM) of the same molecule?
Answer: 0.448

Question: What about the relative viability ([15]; first compound 8 µM) of the same molecule?
Answer: 0.434

Question: What about the relative viability ([16]; first compound 0.08 µM) of the same molecule?
Answer: 0.478

Question: What about the relative viability ([16]; first compound 0.8 µM) of the same molecule?
Answer: 0.507

Question: What about the relative viability ([16]; first compound 2.53 µM) of the same molecule?
Answer: 0.53

Question: And the relative viability ([16]; first compound 8 µM)?
Answer: 0.445

Question: What about the relative viability ([17]; first compound 0.08 µM) of the same molecule?
Answer: 0.634

Question: And the relative viability ([17]; first compound 0.8 µM)?
Answer: 0.632

Question: What about the relative viability ([17]; first compound 2.53 µM) of the same molecule?
Answer: 0.599

Question: And the relative viability ([17]; first compound 8 µM)?
Answer: 0.699

Question: What about the relative viability ([18]; first compound 0.08 µM) of the same molecule?
Answer: 0.92

Question: And the relative viability ([18]; first compound 0.8 µM)?
Answer: 0.844

Question: And the relative viability ([18]; first compound 2.53 µM)?
Answer: 0.99

Question: And the relative viability ([18]; first compound 8 µM)?
Answer: 0.931

Question: And the relative viability ([19]; first compound 0.08 µM)?
Answer: 0.335

Question: What about the relative viability ([19]; first compound 0.8 µM) of the same molecule?
Answer: 0.227

Question: And the relative viability ([19]; first compound 2.53 µM)?
Answer: 0.385

Question: And the relative viability ([19]; first compound 8 µM)?
Answer: 0.289

Question: What about the relative viability ([20]; first compound 0.08 µM) of the same molecule?
Answer: 0.82

Question: What about the relative viability ([20]; first compound 0.8 µM) of the same molecule?
Answer: 1.06

Question: What about the relative viability ([20]; first compound 2.53 µM) of the same molecule?
Answer: 1.18

Question: What about the relative viability ([20]; first compound 8 µM) of the same molecule?
Answer: 0.37

Question: What about the relative viability ([21]; first compound 0.08 µM) of the same molecule?
Answer: 0.26

Question: And the relative viability ([21]; first compound 0.8 µM)?
Answer: 0.284

Question: What about the relative viability ([21]; first compound 2.53 µM) of the same molecule?
Answer: 0.285

Question: What about the relative viability ([21]; first compound 8 µM) of the same molecule?
Answer: 0.259

Question: What about the relative viability ([22]; first compound 0.08 µM) of the same molecule?
Answer: 0.863

Question: And the relative viability ([22]; first compound 0.8 µM)?
Answer: 0.915

Question: What about the relative viability ([22]; first compound 2.53 µM) of the same molecule?
Answer: 0.866

Question: What about the relative viability ([22]; first compound 8 µM) of the same molecule?
Answer: 1.08

Question: And the relative viability ([23]; first compound 0.08 µM)?
Answer: 0.993

Question: What about the relative viability ([23]; first compound 0.8 µM) of the same molecule?
Answer: 1.07

Question: And the relative viability ([23]; first compound 2.53 µM)?
Answer: 0.963

Question: What about the relative viability ([23]; first compound 8 µM) of the same molecule?
Answer: 0.502

Question: And the relative viability ([24]; first compound 0.08 µM)?
Answer: 0.0662

Question: And the relative viability ([24]; first compound 0.8 µM)?
Answer: 0.072

Question: And the relative viability ([24]; first compound 2.53 µM)?
Answer: 0.0629

Question: What about the relative viability ([24]; first compound 8 µM) of the same molecule?
Answer: 0.0617

Question: And the relative viability ([25]; first compound 0.08 µM)?
Answer: 0.495

Question: What about the relative viability ([25]; first compound 0.8 µM) of the same molecule?
Answer: 0.527

Question: What about the relative viability ([25]; first compound 2.53 µM) of the same molecule?
Answer: 0.52

Question: What about the relative viability ([25]; first compound 8 µM) of the same molecule?
Answer: 0.473
